The record followed here is ChEMBL document CHEMBL1130940, “Combinatorial chemistry: from peptides and peptidomimetics to small organic and heterocyclic compounds” (Bioorg Med Chem Lett, 1998).

The term pKi denotes −log10 of the Ki, conventionally taken in molar units. A low value points to a high Ki.

pKi: −log10 of the molar value.

In this test the target is Sigma non-opioid intracellular receptor 1 (Homo sapiens, UniProt Q99720). Kind of test: Binding affinity for [3H]- pentazocine at sigma opioid receptor.
Sequence of Sigma non-opioid intracellular receptor 1 (Q99720 whole entry): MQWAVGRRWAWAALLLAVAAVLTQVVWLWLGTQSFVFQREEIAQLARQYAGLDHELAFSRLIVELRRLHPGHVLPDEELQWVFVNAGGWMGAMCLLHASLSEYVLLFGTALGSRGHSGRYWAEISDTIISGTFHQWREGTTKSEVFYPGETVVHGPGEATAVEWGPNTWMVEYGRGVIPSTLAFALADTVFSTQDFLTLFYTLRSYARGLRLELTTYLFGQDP
`CC[C@@H](C)[C@H](C(=O)NCc1ccccc1)N1C(=O)[C@@H](CCCCN)N(Cc2ccccc2)C1=O`: the pKi is 6.90.

`NCCC[C@H]1C(=O)N([C@H](CC2CCCCC2)C(N)=O)C(=O)N1Cc1ccccc1` gave a pKi of 6.39.

Take `NCCCC[C@@H]1C(=O)N([C@@H](CC2CCCCC2)C(N)=O)C(=O)N1Cc1ccccc1`: the pKi was 6.60.

Consider `CCC[C@H](C(=O)NCc1ccccc1)N1C(=O)[C@@H](CCCN)N(Cc2ccccc2)C1=O`, for which the pKi was 6.36.

Compound `CCC[C@H](C(=O)NCc1ccccc1)N1C(=O)[C@H](CCCCN)N(Cc2ccccc2)C1=O` showed a pKi of 7.19.

The compound `CC[C@H](C)[C@H](C(=O)NCc1ccccc1)N1C(=O)[C@@H](CCCN)N(Cc2ccccc2)C1=O` showed a pKi of 6.48.

In the case of `CCC[C@H](C(=O)NCc1ccccc1)N1C(=O)[C@@H](CCCCCN)N(Cc2ccccc2)C1=O`, the pKi is 5.62.

In the case of `NCCCC[C@@H]1C(=O)N([C@H](CC2CCCCC2)C(N)=O)C(=O)N1Cc1ccccc1`, the negative logarithm of the Ki (pKi) is 6.72.

In the case of `NCCCCC[C@@H]1C(=O)N([C@H](CC2CCCCC2)C(N)=O)C(=O)N1Cc1ccccc1`, the pKi is 5.44.

Compound `CC[C@H](C)[C@@H](C(=O)NCc1ccccc1)N1C(=O)[C@@H](CCCCN)N(Cc2ccccc2)C1=O` had a negative-log Ki (pKi) of 7.21.

As to `CCC[C@H](C(=O)NCc1ccccc1)N1C(=O)[C@@H](CCCCN)N(Cc2ccccc2)C1=O`, the pKi was 7.10.

`CC[C@H](C)[C@H](C(=O)NCc1ccccc1)N1C(=O)[C@@H](CCCCCN)N(Cc2ccccc2)C1=O` gave a pKi of 5.34.
